This note sets out measurements from BindingDB's records for patent US11912686 (Gilead Sciences, 2024).

Each structure is given as a SMILES string.

In the assay the target is Lysophosphatidic acid receptor 1 (Homo sapiens, UniProt Q92633). The experiment in a line: Calcium Mobilization Assay. On the procedure:
For agonist dose curves, cells were removed from the incubator 2 hours after dye loading and transferred to the FLIPR Tetra instrument (Molecular Devices, San Jose, CA). […] After dye loading, cells were removed from the incubator and 0.3 μL of 200× antagonist was added. Cells were incubated for 60 minutes at 37° C. Antagonist activity was measured on a FLIPR Tetra. Calcium mobilization was monitored for 3.5 minutes and 10 μL 6× EC80 LPA in HBSS, 20 mM HEPES, and 0.1% BSA was added to the cells 5 seconds into the assay. Signal amplitude (Maximum minus minimum) values were plotted against log10 of antagonist concentration using Dose Response T
A general note: Calcium assays in cells follow changes in intracellular calcium, usually with a dye or a luminescent sensor.

For orientation: EC50 means the concentration that produces a half-maximal response.

Lysophosphatidic acid receptor 1, sequence (Q92633 whole entry): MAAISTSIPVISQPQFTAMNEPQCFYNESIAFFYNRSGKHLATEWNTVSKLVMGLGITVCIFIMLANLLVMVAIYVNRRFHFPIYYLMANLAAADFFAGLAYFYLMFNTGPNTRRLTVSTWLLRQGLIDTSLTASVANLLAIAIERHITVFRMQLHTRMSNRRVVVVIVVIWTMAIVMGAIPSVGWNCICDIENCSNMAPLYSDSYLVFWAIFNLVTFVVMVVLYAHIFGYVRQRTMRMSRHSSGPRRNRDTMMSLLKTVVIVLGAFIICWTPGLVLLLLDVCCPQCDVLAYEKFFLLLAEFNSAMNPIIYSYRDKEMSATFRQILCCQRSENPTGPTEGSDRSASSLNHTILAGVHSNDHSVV

On to `CCNC(=O)Nc1ccc(-c2nnn(C)c2NC(=O)O[C@H](C)c2cccnc2Cl)cn1` [US11912686, Compound 4], for which the EC50 is at least 10 µM.

In the case of `C[C@@H](OC(=O)Nc1c(-c2ccc(NC(=O)[C@H]3C[C@@](F)(C#N)C3)cn2)nnn1C)c1cccnc1Cl` [US11912686, Compound 185], the EC50 came to 1.7 µM.

Take `C[C@@H](OC(=O)Nc1c(-c2ccc(NC(=O)N3CCOCC3)cn2)nnn1C)c1cccnc1Cl` [US11912686, Compound 189]: the EC50 is 0.989 µM.
